Consider two compounds from patent publication US20040242904A1, “Novel sordarin derivative isolated from culture fermentations and functions as an antifungal agent” (priority 2001, published 2004).

≈ marks a conversion by molar mass, not a printed value. Where two headings read alike, the source gives them in different places.

Assay [1] has as its target C. neoformans/SIII (S. cerevisiae strain expressing C. neoformans eEF2) (Cryptococcus neoformans, UniProt Q9HFZ8). The experiment in a line: SwordIII growth inhibition assay, C. neoformans/SIII strain. It is filed as cell-based. An excerpt: (§1) Sordarin and its derivatives bind to the eEF2-ribosome-nucleotide complex in sensitive fungi. Through different in vitro assays using purified components from human, yeast and plant cells, it has been shown that the selective sensitivity to sordarin and its derivatives is dependent on fungal eEF2. The fungal specificity of the sordarin makes eEF2 an attractive anti-infective target. (J Biol Chem. 1998, Feb 6; 273(6):3148-51).
(§2) Specifically, natural products are screened which show a differential activity between the human control and the other strains, although a 100% differential is not required in the initial discovery effort. It may be possible to observe hits solely against the fungal eEF2s, and/or the protozoal eEF2s. In sum, SWORDIII is designed to identify inhibitors of fungal and protozoal eEF2s to provide opportunities for developing anti-infective agents with a unique and selective mechanism of action.
(§3) For this reason, the eEF2 encoding genes from different organisms and several species of pathogenic fungi have been cloned, characterized and expressed in S. cerevisiae at Merck Research Laboratory, as previously described (Microbiology 147:383-90, 2001). Site directed mutagenesis of the C. parapsilosis gene encoding eEF2 to create S521Y, N523S single mutants and the S521Y, N523S double mutant was accomplished by the PCR overlap extension technique (Gene 77:51-59, 1989). […]

Assay [2] concerns C. lusitaniae in vitro translation. The experiment in a line: In vitro translation assay, C. lusitaniae. Conditions: average of three independent experiments. It counts as biochemical. Here is the method: (§4) In vitro translation assays were performed as described in Shastry, et al. Microbiology, 2001, 147(2):383-90. The IC50 values are the average of three independent experiments. The lower limit of sensitivity is about 0.005 μg/ml.

In assay [3] the test system is A. nidulans in vitro translation. The experiment in a line: In vitro translation assay, A. nidulans. It is filed as biochemical. Conditions: average of three independent experiments. Here is the method: as §4
The target in assay [4] is C. krusei/SIII (S. cerevisiae strain expressing C. krusei eEF2) (Pichia kudriavzevii, UniProt A0A2U9R6P9). The experiment in a line: SwordIII growth inhibition assay, C. krusei/SIII strain. It counts as cell-based.
Excerpt: as §1, §2, §3

Assay [5] concerns S. cerevisiae in vitro translation. Put plainly: In vitro translation assay, S. cerevisiae. It is filed as biochemical. Particulars: average of three independent experiments, lower limit of sensitivity about 0.005 μg/ml. Here is the method:
as §4

Assay [6] has as its target E. tenella/SIII (S. cerevisiae strain expressing E. tenella eEF2) (Eimeria tenella, UniProt A0A184W4F4). Put plainly: SwordIII growth inhibition assay, E. tenella/SIII strain. It is filed as cell-based.
Excerpt: as §1, §2, §3

The subject of assay [7] is C. albicans in vitro translation. The experiment in a line: In vitro translation assay, C. albicans. It is filed as biochemical. Particulars: average of three independent experiments, lower limit of sensitivity about 0.005 μg/ml. Here is the method: as §4
In assay [8] the test system is C. parapsilosis in vitro translation. The experiment in a line: In vitro translation assay, C. parapsilosis. It is filed as biochemical. Particulars: average of three independent experiments. Here is the method:
as §4

Assay [9] deals with C. krusei in vitro translation. The experiment in a line: In vitro translation assay, C. krusei. It is filed as biochemical. Conditions: average of three independent experiments. As to the method: as §4
Assay [10] addresses A. fumigatus/SIII (S. cerevisiae strain expressing A. fumigatus eEF2) (Aspergillus fumigatus, UniProt Q4X0G7). The experiment in a line: SwordIII growth inhibition assay, A. fumigatus/SIII strain. It counts as cell-based.
Excerpt: as §1, §2, §3

In assay [11] the test system is C. guilliermondi in vitro translation. The experiment in a line: In vitro translation assay, C. guilliermondi. It is filed as biochemical. Particulars: average of three independent experiments, lower limit of sensitivity about 0.005 μg/ml. As to the method: as §4
Assay [12] has as its target Human/SIII (S. cerevisiae strain expressing human eEF2) (UniProt P13639, cells depend on it, species not given). The experiment in a line: SwordIII growth inhibition assay, Human/SIII strain. It counts as cell-based.
Excerpt: as §1, §2, §3

In assay [13] the target is C. lusitaniae/SIII (S. cerevisiae strain expressing C. lusitaniae eEF2) (Clavispora lusitaniae, UniProt C4YCF8). Put plainly: SwordIII growth inhibition assay, C. lusitaniae/SIII strain. It is filed as cell-based.
Chain of C. lusitaniae/SIII (S. cerevisiae strain expressing C. lusitaniae eEF2) (C4YCF8 1-830, change not shown): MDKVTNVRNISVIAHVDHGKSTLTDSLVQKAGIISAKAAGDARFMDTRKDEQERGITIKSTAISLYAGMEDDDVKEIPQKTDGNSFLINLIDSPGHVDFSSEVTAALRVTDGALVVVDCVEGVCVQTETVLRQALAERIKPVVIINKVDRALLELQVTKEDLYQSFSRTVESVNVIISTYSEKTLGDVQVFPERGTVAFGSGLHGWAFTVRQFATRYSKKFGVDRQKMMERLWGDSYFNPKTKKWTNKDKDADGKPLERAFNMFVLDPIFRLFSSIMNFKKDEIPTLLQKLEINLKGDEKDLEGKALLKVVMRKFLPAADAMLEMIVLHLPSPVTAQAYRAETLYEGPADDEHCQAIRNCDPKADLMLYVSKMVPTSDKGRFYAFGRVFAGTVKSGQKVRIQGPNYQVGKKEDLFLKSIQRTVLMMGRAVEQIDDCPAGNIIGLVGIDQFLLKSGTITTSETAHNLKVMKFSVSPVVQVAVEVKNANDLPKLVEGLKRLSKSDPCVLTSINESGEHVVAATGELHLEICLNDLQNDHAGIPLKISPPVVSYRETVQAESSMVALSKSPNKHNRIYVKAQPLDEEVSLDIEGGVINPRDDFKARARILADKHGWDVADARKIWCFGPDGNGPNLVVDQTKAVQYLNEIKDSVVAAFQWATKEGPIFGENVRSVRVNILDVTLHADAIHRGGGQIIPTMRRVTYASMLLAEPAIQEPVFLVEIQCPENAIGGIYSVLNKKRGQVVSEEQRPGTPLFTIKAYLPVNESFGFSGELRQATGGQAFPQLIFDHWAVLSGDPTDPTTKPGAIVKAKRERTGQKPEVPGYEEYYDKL
Excerpt: as §1, §2, §3

Assay [14] concerns C. glabrata in vitro translation. Put plainly: In vitro translation assay, C. glabrata. It is filed as biochemical. Particulars: average of three independent experiments. Here is the method: as §4
For assay [15], the system named is C. neoformans in vitro translation. The experiment in a line: In vitro translation assay, C. neoformans. It is filed as biochemical. Conditions: average of three independent experiments. Here is the method: as §4
Assay [16] has as its target T1, C. glabrata/SIII (S. cerevisiae strain expressing C. glabrata eEF2) (Candida glabrata, UniProt Q6FYA7).
T1 construct: S. cerevisiae strains expressing full length heterologous eEF2s; expressed in transfected cells; host or cells: S. cerevisiae Δeft1 Δeft2 deletion strain YEFD12h
The experiment in a line: SwordIII growth inhibition assay, C. glabrata/SIII strain. It counts as cell-based.
Excerpt: as §1, §2, §3

The target of assay [17] is T2, S. cerevisiae/SIII (S. cerevisiae strain, S. cerevisiae eEF2) (Saccharomyces cerevisiae, UniProt P32324).
T2 construct: expressed in transfected cells; host or cells: S. cerevisiae Δeft1 Δeft2 deletion strain YEFD12h
T2 sequence (P32324 whole entry): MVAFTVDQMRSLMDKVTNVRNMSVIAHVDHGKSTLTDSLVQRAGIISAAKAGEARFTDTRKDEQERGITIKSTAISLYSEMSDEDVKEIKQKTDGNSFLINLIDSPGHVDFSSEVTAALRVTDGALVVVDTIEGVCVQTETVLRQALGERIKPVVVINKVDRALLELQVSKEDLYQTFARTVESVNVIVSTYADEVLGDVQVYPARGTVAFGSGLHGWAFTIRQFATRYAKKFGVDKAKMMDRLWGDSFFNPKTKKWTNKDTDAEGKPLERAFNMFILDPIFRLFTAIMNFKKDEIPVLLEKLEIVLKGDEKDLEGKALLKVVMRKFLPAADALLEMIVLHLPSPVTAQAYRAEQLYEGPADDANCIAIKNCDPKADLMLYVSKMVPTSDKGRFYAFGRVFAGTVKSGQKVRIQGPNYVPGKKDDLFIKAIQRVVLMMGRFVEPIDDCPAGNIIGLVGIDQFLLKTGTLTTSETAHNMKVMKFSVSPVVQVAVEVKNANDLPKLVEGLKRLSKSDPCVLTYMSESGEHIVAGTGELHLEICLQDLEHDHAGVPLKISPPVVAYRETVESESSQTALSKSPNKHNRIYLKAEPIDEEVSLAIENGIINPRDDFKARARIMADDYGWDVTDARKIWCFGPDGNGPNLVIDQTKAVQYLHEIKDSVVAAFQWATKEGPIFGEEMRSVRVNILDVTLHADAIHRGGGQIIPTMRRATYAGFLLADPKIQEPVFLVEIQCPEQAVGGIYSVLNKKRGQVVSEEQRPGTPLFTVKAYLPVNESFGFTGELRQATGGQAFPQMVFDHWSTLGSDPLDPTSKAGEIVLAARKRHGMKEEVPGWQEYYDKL
The experiment in a line: SwordIII growth inhibition assay, S. cerevisiae/SIII strain. It counts as cell-based.
Excerpt: as §1, §2, §3

The mark [18] stands for this setting: SC medium, 29° C., approximately 16 hours, read-out: IC50 (μg/ml).
Setting [19] is: read-out: IC50 (μg/ml), SC medium, 29° C., approximately 16 hours.

Chain of C. neoformans/SIII (S. cerevisiae strain expressing C. neoformans eEF2) (Q9HFZ8 1-838, stated change not applied): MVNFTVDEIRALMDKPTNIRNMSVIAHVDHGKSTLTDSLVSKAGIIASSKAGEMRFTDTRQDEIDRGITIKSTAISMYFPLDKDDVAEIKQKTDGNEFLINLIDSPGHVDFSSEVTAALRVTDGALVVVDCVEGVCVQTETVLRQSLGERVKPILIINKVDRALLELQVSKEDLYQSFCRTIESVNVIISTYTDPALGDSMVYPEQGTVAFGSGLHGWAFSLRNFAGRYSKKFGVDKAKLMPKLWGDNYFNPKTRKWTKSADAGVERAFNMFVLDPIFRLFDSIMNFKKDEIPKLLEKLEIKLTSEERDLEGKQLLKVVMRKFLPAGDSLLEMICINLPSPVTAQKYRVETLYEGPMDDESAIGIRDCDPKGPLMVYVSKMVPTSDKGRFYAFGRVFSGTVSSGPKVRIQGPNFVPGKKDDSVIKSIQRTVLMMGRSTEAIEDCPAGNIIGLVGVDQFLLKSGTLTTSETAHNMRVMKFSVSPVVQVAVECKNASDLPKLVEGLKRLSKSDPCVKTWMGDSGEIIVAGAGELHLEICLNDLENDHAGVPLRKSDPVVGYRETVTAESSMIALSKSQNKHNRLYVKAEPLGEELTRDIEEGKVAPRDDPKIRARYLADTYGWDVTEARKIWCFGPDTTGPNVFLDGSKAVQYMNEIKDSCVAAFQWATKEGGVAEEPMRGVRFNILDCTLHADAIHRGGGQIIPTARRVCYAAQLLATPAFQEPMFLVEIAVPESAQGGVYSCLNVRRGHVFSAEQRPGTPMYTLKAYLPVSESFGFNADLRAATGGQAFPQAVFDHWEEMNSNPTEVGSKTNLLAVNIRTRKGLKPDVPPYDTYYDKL
Chain of A. fumigatus/SIII (S. cerevisiae strain expressing A. fumigatus eEF2) (Q4X0G7 1-839, change not shown): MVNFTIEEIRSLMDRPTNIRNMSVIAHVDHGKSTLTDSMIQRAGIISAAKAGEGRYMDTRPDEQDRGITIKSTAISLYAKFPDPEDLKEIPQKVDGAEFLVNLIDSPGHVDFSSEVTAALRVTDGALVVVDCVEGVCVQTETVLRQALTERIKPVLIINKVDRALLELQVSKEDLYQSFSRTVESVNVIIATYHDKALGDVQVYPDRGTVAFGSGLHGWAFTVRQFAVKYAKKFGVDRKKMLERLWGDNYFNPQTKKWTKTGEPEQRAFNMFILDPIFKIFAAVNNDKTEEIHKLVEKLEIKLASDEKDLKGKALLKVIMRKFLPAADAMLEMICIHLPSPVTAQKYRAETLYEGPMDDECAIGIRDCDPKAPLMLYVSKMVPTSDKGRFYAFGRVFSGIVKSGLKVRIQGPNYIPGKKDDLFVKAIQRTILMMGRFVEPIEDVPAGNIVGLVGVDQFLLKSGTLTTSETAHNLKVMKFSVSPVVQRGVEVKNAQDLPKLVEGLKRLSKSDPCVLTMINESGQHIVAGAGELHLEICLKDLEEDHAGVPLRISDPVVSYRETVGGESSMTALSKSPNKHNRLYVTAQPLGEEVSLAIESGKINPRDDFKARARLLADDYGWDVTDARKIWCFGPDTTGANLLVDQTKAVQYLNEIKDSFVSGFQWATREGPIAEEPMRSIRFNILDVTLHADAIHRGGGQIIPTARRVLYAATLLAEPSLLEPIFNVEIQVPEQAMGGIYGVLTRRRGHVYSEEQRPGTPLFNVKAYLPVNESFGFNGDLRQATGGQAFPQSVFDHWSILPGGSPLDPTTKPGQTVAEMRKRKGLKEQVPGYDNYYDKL
Chain of E. tenella/SIII (S. cerevisiae strain expressing E. tenella eEF2) (A0A184W4F4 1-832, change not shown): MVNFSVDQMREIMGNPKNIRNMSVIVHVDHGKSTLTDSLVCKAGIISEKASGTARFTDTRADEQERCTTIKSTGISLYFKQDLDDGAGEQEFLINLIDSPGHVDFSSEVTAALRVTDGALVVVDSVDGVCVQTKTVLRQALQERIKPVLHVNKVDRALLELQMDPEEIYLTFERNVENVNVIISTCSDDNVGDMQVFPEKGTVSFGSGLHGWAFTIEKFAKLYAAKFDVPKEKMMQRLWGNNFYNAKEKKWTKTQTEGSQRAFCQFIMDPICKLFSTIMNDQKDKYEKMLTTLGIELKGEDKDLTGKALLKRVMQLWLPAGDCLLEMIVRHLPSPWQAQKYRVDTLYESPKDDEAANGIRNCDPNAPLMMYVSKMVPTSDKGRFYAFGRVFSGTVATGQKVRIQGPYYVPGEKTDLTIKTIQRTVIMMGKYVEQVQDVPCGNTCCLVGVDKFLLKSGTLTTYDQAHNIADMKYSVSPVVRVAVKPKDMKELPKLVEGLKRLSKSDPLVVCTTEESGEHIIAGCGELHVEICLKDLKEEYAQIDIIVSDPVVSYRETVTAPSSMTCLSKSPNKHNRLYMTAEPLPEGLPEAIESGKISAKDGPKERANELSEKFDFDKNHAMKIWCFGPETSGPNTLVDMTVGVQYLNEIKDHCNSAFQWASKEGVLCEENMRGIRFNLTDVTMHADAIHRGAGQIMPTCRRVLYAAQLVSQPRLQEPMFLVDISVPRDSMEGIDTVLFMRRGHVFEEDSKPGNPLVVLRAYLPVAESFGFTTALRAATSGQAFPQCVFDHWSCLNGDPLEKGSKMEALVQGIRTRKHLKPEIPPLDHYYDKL
T1 sequence (Q6FYA7 whole entry): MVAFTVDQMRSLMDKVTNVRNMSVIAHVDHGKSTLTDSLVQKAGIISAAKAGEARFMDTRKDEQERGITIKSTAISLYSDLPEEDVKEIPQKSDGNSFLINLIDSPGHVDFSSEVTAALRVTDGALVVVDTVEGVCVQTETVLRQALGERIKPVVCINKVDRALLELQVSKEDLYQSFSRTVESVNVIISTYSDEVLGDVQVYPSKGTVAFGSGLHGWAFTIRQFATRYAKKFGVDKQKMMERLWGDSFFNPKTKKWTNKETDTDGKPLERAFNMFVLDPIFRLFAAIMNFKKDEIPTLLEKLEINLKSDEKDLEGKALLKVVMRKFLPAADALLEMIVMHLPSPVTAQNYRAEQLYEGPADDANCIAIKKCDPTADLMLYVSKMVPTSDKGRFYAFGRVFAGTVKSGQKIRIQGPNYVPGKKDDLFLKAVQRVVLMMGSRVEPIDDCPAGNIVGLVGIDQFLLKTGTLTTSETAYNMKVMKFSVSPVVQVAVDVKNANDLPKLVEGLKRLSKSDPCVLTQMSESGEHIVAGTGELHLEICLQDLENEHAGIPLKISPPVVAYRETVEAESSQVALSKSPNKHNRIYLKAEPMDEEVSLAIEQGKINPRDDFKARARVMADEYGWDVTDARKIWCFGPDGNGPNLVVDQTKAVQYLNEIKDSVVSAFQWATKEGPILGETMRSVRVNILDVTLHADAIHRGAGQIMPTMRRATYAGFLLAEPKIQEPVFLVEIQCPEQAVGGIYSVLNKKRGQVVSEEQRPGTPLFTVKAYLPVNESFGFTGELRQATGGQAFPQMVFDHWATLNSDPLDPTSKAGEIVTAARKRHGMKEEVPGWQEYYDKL

As for `CO[C@H]1[C@@H](O)[C@H](O)[C@H](OC[C@@]23C[C@@H]4[C@H](C)CC[C@H]4[C@@]4(C=O)CC2C=C(C(C)C)[C@@]34C(=O)O)O[C@@H]1C` [Sordarin], the IC50 was over 203 µM in assay [1] (setting [18]); over 100 µg/mL in [2]; 2.6 µg/mL (≈ 5.28 µM) in [3]; over 203 µM in assay [4] (setting [18]); 6 ng/mL (≈ 0.0122 µM) in [5]; over 203 µM in assay [6] (setting [18]). In addition, the “IC50” value in [7] was 6 ng/mL (≈ 0.0122 µM); in assay [8], over 100 µg/mL; in assay [9] it was over 100 µg/mL; in assay [10] (setting [18]) it was over 203 µM; in assay [11] it was 10 ng/mL (≈ 0.0203 µM); in assay [13] (setting [18]), over 203 µM. Besides, the “IC50” value in assay [14] was 0.036 µg/mL (≈ 0.0731 µM); in assay [15], 0.2 µg/mL (≈ 0.406 µM); in assay [16], 12.7 µM; in assay [17], 386 nM. The GI50 in [12] (setting [18]) is over 203 µM.

As to `COC1C(C)OC(OCC23CC4C(C)CCC4C4(C=O)CC2C=C(C(C)C)C43C(=O)O)C(O)C12OC(=O)C(CCCCCCCC(=O)O)O2` (stereo not shown) [The Compound of Formula I], the IC50 was 7.24 µM in assay [1] (setting [19]); 0.5 µg/mL in assay [2]; 0.6 µg/mL in assay [3]; 21.7 µM in assay [4] (setting [19]); 6 ng/mL in assay [5]; over 29 µM in [6] (setting [19]). The “IC50” value was 6 ng/mL in [7]; 0.5 µg/mL in assay [8]; 1 µg/mL in assay [9]; 29 µM in assay [10] (setting [19]); 6 ng/mL in assay [11]; over 29 µM in [13] (setting [19]). The “IC50” value is 0.015 µg/mL in assay [14], 0.02 µg/mL in assay [15], 7.24 µM in assay [16] and 217 nM in assay [17]. Further, the GI50 in [12] (setting [19]) was over 29 µM.
